How the values were obtained:
[1] = system: Human Dermal Microvascular Endothelial Cells (HMVEC-D); assay: Vascular permeability, 3 kDa Dextran leakage from basal into apical channel of Nociceptors-Chip; format: cell-based; conditions: capsaicin 200 nM apical, simultaneously with inflammatory mediators (each 5 μM) basal, 3 hours
Description: In one embodiment, endothelial cells were seeded into the basal channel, e.g. Human Dermal Microvascular Endothelial Cells (HMVEC-D), i.e. Primary Dermal Microvascular Endothelial Cells; Normal, Human, Neonatal (HDMVECn) (e.g. ATCC® PCS-110-010™). However, it is not meant to limit the source of HMVEC, such that Primary Dermal Microvascular Endothelial Cells may be obtained from neonatal biopsies, e.g. foreskins. Prior to seeding, basal channels were coated with a thin rat collagen coating. Rat collagen was diluted in distillated water to obtain a final protein concentration at 150 μg/mL−1. The basal channel was coated by incubating the channel in collagen solution at 4° C. overnight. Unattached rat collagen was washed away with PBS, then culture medium was flowed in to cover the coated membrane to replace the PBS.
This model was further developed, as described herein, successfully simulating the process of sensitization that leads to pathological pain by the addition of inflammatory mediators to endothelial media perfused through the vascular channel. […]
Another readout is obtained by using Dextran (3 kDa) permeability, where Dextran is added to the basal channel then after 24 hours, effluent from the apical channel was collected for measuring the amount of Dextran that diffused through the endothelial barrier into the neuronal channel. […]

[2] = system: human iPS-derived sensory neurons (Nociceptors); assay: Live calcium imaging (Fluo-4 AM) of Nociceptors on-chip after capsaicin irritation; format: cell-based; conditions: capsaicin 1 μM, sensory neurons in apical channel
Description: Irritation (as pain simulation) to sensory neurons on-chip was induced by capsaicin (1 μM in DMEM/F12 with 10% FBS, supplemented with BDNF, GDNF, NGF, NT-3 (25 ng/ml each) and Ascorbic Acid (200 μM)) in order to recapitulate the sensation of burning (heat) felt by humans exposed to capsaicin. Nociceptors responded to capsaicin, as shown by live imaging of calcium using Fluo-4 AM, see FIGS. 28C and 28D. Fluo-4 AM refers to a calcium sensitive fluorescent dye, loaded onto the sensory neurons. Intracellular calcium fluctuations were monitored over time using high-speed imaging. Acquisition protocols, for the example shown herein, consisted of 5-minute time-lapse sequences of Fluo-4 fluorescence. Alterations in fluorescence as a function of time were measured at a single wavelength (Fluo-4). Analysis and processing, as well as playback of the image sequences for visual inspection, was made using ImageJ/FIJI software. To visualize the spatial and temporal changes in, the raw sequences were processed to highlight changes in fluorescence intensity between frames. Regions of interest over the field of view were selected, and the mean pixel intensity at each frame was measured. The data was first plotted as fluorescence intensity versus and subsequently converted to a relative scale (ΔF/F baseline)

[3] = system: human iPS-derived sensory neurons (Nociceptors); assay: Substance P release into apical channel effluent of Nociceptors-Chip; format: cell-based
Description: Chemical stimulation of Nociceptors with Capsaicin (e.g. 1 μM), perfused for 3 hours, was followed by effluent collected from the apical channel (neuronal). This Capsaicin treatment elicited the release of substance P, a pain neurotransmitter. […] This model was further developed, as described herein, successfully simulating the process of sensitization that leads to pathological pain by the addition of inflammatory mediators to endothelial media perfused through the vascular channel. As one example, 5 μM each of Prostaglandin E2, bradykinin, serotonin and histamine in Vascular Cell Basal Medium (ATCC® PCS-100-030™) with Microvascular Endothelial Cell Growth Kit-VEGF (ATCC® PCS-110-041™) was perfused through the vascular channel. In other words, this model is intended to simulate peripheral sensitization of Nociceptors. Capsaicin (200 nM) and inflammatory mediators (each 5 μM) were perfused for 3 hours, and the effluents were collected from the apical channel (neuronal). See, FIG. 30A for an exemplary schematic diagram. […] At the same time, inflammatory mediators, i.e. Prostaglandin E2, bradykinin, serotonin and histamine (each 5 μM in media), were added to the inlet of the basal channel. The effluent was collected from the outlet of the apical channel after 3 hours (t=3 h).

astrocytes = assay: Brain-Chip GFAP expression after TNF-α perfused into neuronal channel; format: cell-based, human; conditions: TNF-α 100 ng/ml perfused into neuronal channel; up to 24 hours after stimulation
Description: TNF-α (100 ng/ml) or vehicle was perfused into the neuronal channel.

endothelial cells = assay: Real-time TEER measurement in BBB-chip; format: cell-based; conditions: BBB-chip under flow, after TNF-a challenge
Text: TEER measures the resistance to pass current across one or more cell layers on a membrane. Specifically, this electrical resistance is a direct measurement of the resistance of the cell monolayer to the transport of ions. The measurement may be affected by the pore size and density of the membrane, but it aims to ascertain cell and/or tissue properties. The TEER value is considered a good measure of the integrity of a cell monolayer.
The barrier function of the same BBB-chip measured by flowing a fluorescent molecule on one side of the chip and measuring how much of the molecules crosses the endothelial cells, FIG. 23B (middle). The resolution of this measurement is limited by the time it takes for a sufficient sample to flow through the chip. A model of an exemplary TEER-Chip design FIG. 23C (right) utilizing electrodes oriented in a manner that allows electrical resistance of the cells on the membrane to be measured in real-time.

[4] = system: iPSC-derived human brain microvascular endothelial cells; assay: Inflamed Brain-Chip: endothelial morphology (ZO-1) and Dextran leakage after TNF-α in vascular channel; format: cell-based
Description: In one embodiment to provide an innervated human brain chip having intact barrier function, induced pluripotent stem cells (iPSC)-derived cortical neurons, including populations of Glutamatergic neurons and GABAergic neurons, human primary astrocytes, and human primary pericytes were seeded into the neuronal channel (upper chamber), and iPSC-derived human brain microvascular endothelial cells in the vascular channel (lower chamber).
The vascular channel was directly stimulated the vascular channel at two concentrations of TNF-α.

| Compound | Vascular permeability (leakage of 3 kDa Dextran into the apical channel) [1] | Nociceptor response by live imaging of calcium, change in fluorescence (ΔF/F) [2] | Substance P released in the apical channel effluent ([3]; capsaicin 200 nM apical, with inflammatory mediators (Prostaglandin E2, bradykinin, serotonin, histamine, each 5 μM) basal, 3 hours) | Substance P released in the apical channel effluent ([3]; capsaicin 1 μM perfused through apical channel for 3 hours) | GFAP expression (optical intensity of GFAP staining) (astrocytes) | Barrier function by real-time TEER (endothelial cells) | Percent leakage of Dextran into the apical channel (paracellular permeability) vs control ([4]; TNF-α 100 ng/ml and 1 ug/ml in vascular channel, 16 hours) | Endothelial cell morphology (ZO-1 expression) ([4]; TNF-α in vascular channel for 16 hours, 100 ng/ml and 1 ug/ml) |
| --- | --- | --- | --- | --- | --- | --- | --- | --- |
| COc1cc(CNC(=O)CCCC/C=C/C(C)C)ccc1O [capsaicin, trans-8-methyl-N-vanillyl-6-nonenamide] | significant increase | responded | significant increase | significant increase | – | – | – | – |
| TNF-α | – | – | – | – | significantly increases | abrupt drop | significantly higher | induces changes |

From patent publication US20210054323A1, “INNERVATED INTESTINE ON CHIP” (EMULATE, Inc., priority 2018, published 2021)
